Experimental data published in ChEMBL document CHEMBL1201862, “PubChem BioAssay data set” (2004).
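How tested: cells in 96-well plates exposed to compound for 48 hours at five concentrations. The concentration for 50% growth inhibition is given as GI50.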 Calls of active or inactive are those of the source. Rule as the data show it: active = GI50 up to about 1.1 µM and inactive = higher.

How the values were obtained:
Assay in all cases: NCI tumour cell line growth inhibition, 48 h
[1] = tested on: U-251
[2] = tested on: SK-MEL-28
[3] = tested on: NCI-H23
[4] = tested on: LOX IMVI
[5] = tested on: SK-MEL-2
[6] = tested on: Malme-3M
[7] = tested on: A498
[8] = tested on: KM12
[9] = tested on: ACHN
[10] = tested on: CCRF-CEM
[11] = tested on: HOP-92
[12] = tested on: TK-10
[13] = tested on: OVCAR-5
[14] = tested on: OVCAR-4
[15] = tested on: HCC 2998
[16] = tested on: MOLT-4
[17] = tested on: NCI-H522
[18] = tested on: SR

Measured: GI50

CC(=O)/C=C1\CC(=O)Nc2ccccc2N1
inactive: [1] > 100 µM | [2] > 100 µM | [3] > 100 µM | [4] > 100 µM | [5] > 100 µM | [6] > 100 µM | [7] > 100 µM | [8] > 100 µM | [9] > 100 µM | [10] 2.79 µM | [11] > 100 µM | [12] > 100 µM | [13] > 100 µM | [14] > 100 µM | [15] > 100 µM

COc1ccc2cc3[n+](cc2c1OC)CCc1cc(O)c(O)cc1-3
inactive: [1] > 100 µM | [3] > 100 µM | [4] > 100 µM | [16] > 100 µM | [6] > 100 µM | [7] > 100 µM | [8] > 100 µM | [10] > 100 µM | [11] > 100 µM | [12] > 100 µM | [13] > 100 µM | [17] > 100 µM | [14] > 100 µM

C=CCN1COc2c(cc3c4c(cccc24)C(=O)O3)C1
inactive: [1] > 100 µM | [2] 24.6 µM | [3] 21.4 µM | [4] > 10 µM | [16] 27 µM | [5] > 100 µM | [6] > 10 µM | [7] 21.5 µM | [8] 75.3 µM | [9] > 10 µM | [10] 19.6 µM | [11] 16.2 µM | [12] 21.7 µM | [13] 36.6 µM | [17] 14.1 µM | [14] 68.1 µM | [15] > 100 µM

NC(CCc1nc(-c2ccccc2)cs1)C(=O)O (stereo unspecified)
inactive: [1] > 100 µM | [2] > 100 µM | [3] > 100 µM | [4] > 100 µM | [16] > 100 µM | [6] > 100 µM | [7] > 100 µM | [8] > 100 µM | [9] > 100 µM | [10] > 100 µM | [11] > 100 µM | [12] > 100 µM | [17] > 100 µM | [15] > 100 µM

Cc1ccc2c(c1)CNc1ccc(C)cc1CN2
inactive: [1] > 100 µM | [3] > 100 µM | [4] > 100 µM | [16] > 100 µM | [5] > 100 µM | [8] > 100 µM | [9] > 100 µM | [10] > 100 µM | [11] > 100 µM | [18] > 100 µM | [13] > 100 µM | [17] > 100 µM | [14] > 100 µM

O=C1/C(=C/c2cc(O)c(O)c(O)c2)Oc2cc(O)cc(OC3OC(CO)C(O)C(O)C3O)c21 (stereo unspecified)
inactive: [1] > 10 µM | [2] 46.3 µM | [3] 19.1 µM | [4] 1.73 µM | [16] 19.1 µM | [5] 16.2 µM | [7] 23.9 µM | [8] 29.6 µM | [9] 11.6 µM | [10] 17.5 µM | [11] 3.82 µM | [12] 30.5 µM | [14] 2.06 µM | [15] 39.2 µM

O=C1C(Cl)C(c2ccccc2)N1n1cnc2ccccc2c1=O (stereo unspecified)
inactive: [1] > 100 µM | [2] > 100 µM | [3] > 100 µM | [4] > 100 µM | [16] > 100 µM | [5] > 100 µM | [6] > 100 µM | [8] > 100 µM | [9] > 100 µM | [10] > 100 µM | [12] > 100 µM | [18] 36.1 µM | [13] > 100 µM | [17] 55.3 µM | [14] > 100 µM | [15] > 100 µM

O=C(CC1(O)C(=O)Nc2ccc(Br)cc21)c1ccc(Cl)cc1 (stereo unspecified)
inactive: [1] 27.6 µM | [2] > 100 µM | [3] 67.6 µM | [4] 18.2 µM | [16] 43.3 µM | [5] > 100 µM | [6] > 100 µM | [7] > 100 µM | [8] 47.4 µM | [9] > 100 µM | [10] 38.9 µM | [11] 35.2 µM | [12] > 100 µM | [13] > 100 µM | [17] > 100 µM | [14] 69.7 µM

C=CCc1cc(-c2cc(CC=C)c(O)c(CNCCCl)c2)cc(CNCCCl)c1O
inactive: [1] 16.6 µM | [2] 18.6 µM | [3] 16 µM | [4] 15.3 µM | [16] 16.9 µM | [5] 19.2 µM | [6] 22.2 µM | [7] 18.7 µM | [8] 17.3 µM | [9] 16.5 µM | [10] 18.3 µM | [11] 10.6 µM | [12] 19.6 µM | [17] 16.9 µM | [14] 22.9 µM | [15] 17.3 µM

CC1CC(C2=CC=CCS2)=Nc2ccccc2S1 (stereo unspecified)
inactive: [1] > 100 µM | [2] > 100 µM | [3] > 100 µM | [4] > 100 µM | [16] > 100 µM | [5] > 100 µM | [6] > 100 µM | [7] > 100 µM | [8] > 100 µM | [9] > 100 µM | [10] > 100 µM | [11] 48.4 µM | [12] > 100 µM | [13] > 100 µM | [17] 92.3 µM | [14] > 100 µM | [15] 80.4 µM
